Experimental data published in PubChem BioAssay AID1963846 (Molecular Pharmacology Branch, DTP, NCI, 2024).

Test system: 454973-116-R2-J3-PDC complex spheroid viability
Assay: Anticancer human tumor 454973-116-R2-J3-PDC patient-derived pancreatic carcinoma cell line growth inhibition [POLQ]
Settings: for IC50: curve of first compound; for viability, T/C: stronger effect = lower value
Protocol: Multicellular complex tumor spheroid response to Polymerase (POL) inhibitors (novobiocin, ART-558, RP6685) in combination with a variety of drugs and investigational agents in selected tumor cell lines
The POL inhibitors (novobiocin, ART-558, and RP6685) were evaluated both individually and in combination with standard of care and investigational anticancer small molecules within a complex spheroid model of solid tumors. . Complex spheroids include a stromal component modeled by human endothelial cells (HUVEC) and fibroblasts modeled by human mesenchymal stem cells (MSCs). The concentration ranges selected for each drug and investigational agent were based upon clinically achievable concentrations if the clinical Cmax of the agent was known.
Compounds. The drugs and investigational agents: novobiocin (NSC847541), ART-558 (NSC835418), RP-6685 (NSC848927), peposertib (NSC802822), ceralasertib (NSC780249), elimusertib (NSC800525), camonsertib (NSC841442), AZD-1390 (NSC803789), olaparib (NSC753686), talazoparib (NSC767125), rucaparib (NSC756644), sotorasib (NSC818433), MRTX-1133 (NSC836407), SN-38 (NSC673596), topotecan (NSC609699), epotoside (NSC141540), doxorubicin (NSC123127), gemcitabine (NSC613327), 5-fluorouracil (NSC19893), paclitaxel (NSC125973), vemurafenib (NSC761431), MSA-2 (NSC828583), SN-011 (NSC837082), adavosertib (NSC754352), prexasertib (NSC758257), carboplatin (NSC241240) and oxaliplatin (NSC266046), were obtained from the National Cancer Institute (NCI) Developmental Therapeutics Program Chemical Repository (21). The FDA-approved anticancer drug set is available from the Developmental Therapeutics Program at https://dtp.cancer.gov/organization/dscb/obtaining/. […] The stock solutions were prepared in dimethyl sulfoxide (DMSO, Sigma-Aldrich, St. Louis, MO, cat. D2650), except for the platinum compounds which were prepared in saline (Quality Biological, Gaithersburg, MD, cat. 114-055-101), at 800-fold the tested concentration and stored at -70 degrees C prior to their use. All drugs and investigational agents were tested over a range starting from a high concentration at or near the clinical Cmax and decreasing in half-log increments. If the clinical Cmax for an agent had not been determined, the highest concentration tested was 10 microM, except for SN-38, which was tested at a high concentration of 1 microM.
Cell Culture. All cells were maintained in an incubator at 37 degrees C and 5% CO2 with 95% humidity. The PDC lines were cultured according to standard operating procedures established by the NCI PDMR (https://pdmr.cancer.gov). Table 3 of the manuscript, lists the cell lines along with the number of the three cell types plated to form the mct-spheroids and media for tumor cell growth. After thawing, all PDC lines, except 997537-175-T-J1-PDC and 415267-285-R-J2-PDC, were cultured in Matrigel-coated flasks prepared with a working solution of 1X Ham's F-12 nutrient mix, without supplementation (Thermo Fisher Scientific, cat. 11765054), 100 U/mL penicillin-streptomycin (Thermo Fisher Scientific, cat. 15140122), and 2.5% Matrigel (Corning Inc., Corning, NY, cat. 354248) for the first three passages. The two PDC lines 997537-175-T-J1-PDC and 415267-285-R-J2-PDC were cultured on uncoated flasks. The 857933-349-R-J2-PDC line was cultured in 6C/Colon 1B media containing advanced DMEM/F-12 (Thermo Fisher Scientific, cat. 12634028), 10 mM HEPES (Thermo Fisher Scientific, cat. 15630080), 1X GlutaMAX supplement (Thermo Fisher Scientific, cat. 35050061), 0.1 mg/mL primocin (InvivoGen, San Diego, CA, cat. ant-pm-2), 10% defined fetal bovine serum, heat inactivated (HyClone Laboratories Inc., Logan, UT, cat. SH30070.03HI), 50% L-WRN conditioned media (ATCC, cat. CRL-3276), 1.25 mM N-Acetyl-L-cysteine (Sigma-Aldrich, cat. A9165), 10 mM nicotinamide (Sigma-Aldrich, cat. N0636), 1X B-27 supplement (Thermo Fisher Scientific, cat. 17504044), 1X N-2 supplement (Thermo Fisher Scientific, cat. […]

[1] = second compound 0.0316 µM, first compound 0.0316 µM
[2] = second compound 0.0316 µM, first compound 0.1 µM
[3] = second compound 0.0316 µM, first compound 0.316 µM
[4] = second compound 0.0316 µM, first compound 1 µM
[5] = second compound 0.0316 µM, first compound 3.16 µM
[6] = second compound 0.0316 µM, first compound 10 µM
[7] = second compound 0.1 µM, first compound 0.0316 µM
[8] = second compound 0.1 µM, first compound 0.1 µM
[9] = second compound 0.1 µM, first compound 0.316 µM
[10] = second compound 0.1 µM, first compound 1 µM
[11] = second compound 0.1 µM, first compound 3.16 µM
[12] = second compound 0.1 µM, first compound 10 µM
[13] = second compound 0.316 µM, first compound 0.0316 µM
[14] = second compound 0.316 µM, first compound 0.1 µM
[15] = second compound 0.316 µM, first compound 0.316 µM
[16] = second compound 0.316 µM, first compound 1 µM
[17] = second compound 0.316 µM, first compound 3.16 µM
[18] = second compound 0.316 µM, first compound 10 µM
[19] = second compound 1 µM, first compound 0.0316 µM
[20] = second compound 1 µM, first compound 0.1 µM
[21] = second compound 1 µM, first compound 0.316 µM
[22] = second compound 1 µM, first compound 1 µM
[23] = second compound 1 µM, first compound 3.16 µM
[24] = second compound 1 µM, first compound 10 µM
[25] = second compound 3.16 µM, first compound 0.0316 µM
[26] = second compound 3.16 µM, first compound 0.1 µM
[27] = second compound 3.16 µM, first compound 0.316 µM
[28] = second compound 3.16 µM, first compound 1 µM
[29] = second compound 3.16 µM, first compound 3.16 µM
[30] = second compound 3.16 µM, first compound 10 µM
[31] = second compound 10 µM, first compound 0.0316 µM
[32] = second compound 10 µM, first compound 0.1 µM
[33] = second compound 10 µM, first compound 0.316 µM
[34] = second compound 10 µM, first compound 1 µM
[35] = second compound 10 µM, first compound 3.16 µM
[36] = second compound 10 µM, first compound 10 µM
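Further: spheroids exposed to drugs for seven days before measurement.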
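Wherever viability, T/C is given: percent viability relative to DMSO vehicle control wells taken as 100%.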

For `CC1COCCN1c1cc(C2(O)CC3CCC(C2)O3)c2cnn(-c3ccn[nH]3)c2n1` (stereo unspecified) + Nc1ccc(C#CCN(C(=O)Cc2ncc(C(F)(F)F)cc2C(F)(F)F)c2ccc(F)cc2)nn1, the IC50 (second compound 0.0316 µM) was 0.12 µM, the IC50 (second compound 0.1 µM) was 0.114 µM and the IC50 (second compound 0.316 µM) was 0.0868 µM. For the same compound, the IC50 (second compound 1 µM) was 0.0952 µM, the IC50 (second compound 3.16 µM) was 0.104 µM and the IC50 (second compound 10 µM) was 0.108 µM. For the same compound, the viability, T/C [1] was 83.7%, the viability, T/C [2] was 55.6% and the viability, T/C [3] was 21%. For the same compound, the viability, T/C [4] was 12.5%, the viability, T/C [5] was 16.3% and the viability, T/C [6] was 10.3%. It also gave a viability, T/C [7] of 84.1%, a viability, T/C [8] of 54% and a viability, T/C [9] of 19.8%. The viability, T/C [10] was 12.3%, the viability, T/C [11] was 15.2% and the viability, T/C [12] was 13%. The viability, T/C [13] was 87.1%, the viability, T/C [14] was 44.8% and the viability, T/C [15] was 18.7%. The viability, T/C [16] was 11.5%, the viability, T/C [17] was 14.3% and the viability, T/C [18] was 11.2%. It also gave a viability, T/C [19] of 80.4%, a viability, T/C [20] of 48.6% and a viability, T/C [21] of 15.4%. The viability, T/C [22] was 11%, the viability, T/C [23] was 13.4% and the viability, T/C [24] was 11.7%. It also gave a viability, T/C [25] of 88.1%, a viability, T/C [26] of 51.1% and a viability, T/C [27] of 20.9%. For the same compound, the viability, T/C [28] was 10.7%, the viability, T/C [29] was 15.2% and the viability, T/C [30] was 10.3%. For the same compound, the viability, T/C [31] was 91.6%, the viability, T/C [32] was 52.4% and the viability, T/C [33] was 14.7%. For the same compound, the viability, T/C [34] was 9.37%, the viability, T/C [35] was 11.2% and the viability, T/C [36] was 10.2%.

In the case of `O=C(Nc1ccc(O)c(NS(=O)(=O)c2ccc(F)cc2)c1)c1ccc(-c2ccccc2)cc1` + Nc1ccc(C#CCN(C(=O)Cc2ncc(C(F)(F)F)cc2C(F)(F)F)c2ccc(F)cc2)nn1, the IC50 (second compound 0.0316 µM) is reported as over 10 µM, the IC50 (second compound 0.1 µM) is reported as over 10 µM and the IC50 (second compound 0.316 µM) is reported as over 10 µM. It also gave an IC50 (second compound 1 µM) of over 10 µM, an IC50 (second compound 3.16 µM) of over 10 µM and an IC50 (second compound 10 µM) of over 10 µM. For the same compound, the viability, T/C [1] was 109%, the viability, T/C [2] was 107% and the viability, T/C [3] was 108%. For the same compound, the viability, T/C [4] was 114%, the viability, T/C [5] was 108% and the viability, T/C [6] was 86.5%. It also gave a viability, T/C [7] of 101%, a viability, T/C [8] of 107% and a viability, T/C [9] of 110%. The viability, T/C [10] was 103%, the viability, T/C [11] was 103% and the viability, T/C [12] was 89.9%. It also gave a viability, T/C [13] of 105%, a viability, T/C [14] of 104% and a viability, T/C [15] of 109%. For the same compound, the viability, T/C [16] was 107%, the viability, T/C [17] was 110% and the viability, T/C [18] was 89.2%. The viability, T/C [19] was 110%, the viability, T/C [20] was 108% and the viability, T/C [21] was 111%. It also gave a viability, T/C [22] of 112%, a viability, T/C [23] of 109% and a viability, T/C [24] of 80.9%. It also gave a viability, T/C [25] of 107%, a viability, T/C [26] of 106% and a viability, T/C [27] of 106%. For the same compound, the viability, T/C [28] was 120%, the viability, T/C [29] was 123% and the viability, T/C [30] was 86.8%. The viability, T/C [31] was 123%, the viability, T/C [32] was 112% and the viability, T/C [33] was 112%. The viability, T/C [34] was 120%, the viability, T/C [35] was 109% and the viability, T/C [36] was 85.5%.

`O=C(c1cc(Cc2n[nH]c(=O)c3ccccc23)ccc1F)N1CCN(C(=O)C2CC2)CC1` + Nc1ccc(C#CCN(C(=O)Cc2ncc(C(F)(F)F)cc2C(F)(F)F)c2ccc(F)cc2)nn1 showed an IC50 (second compound 0.0316 µM) of over 10 µM, an IC50 (second compound 0.1 µM) of over 10 µM and an IC50 (second compound 0.316 µM) of 9.69 µM. It also gave an IC50 (second compound 1 µM) of over 10 µM, an IC50 (second compound 3.16 µM) of over 10 µM and an IC50 (second compound 10 µM) of over 10 µM. It also gave a viability, T/C [1] of 101%, a viability, T/C [2] of 101% and a viability, T/C [3] of 90.8%. The viability, T/C [4] was 91%, the viability, T/C [5] was 95.1% and the viability, T/C [6] was 58.9%. It also gave a viability, T/C [7] of 101%, a viability, T/C [8] of 101% and a viability, T/C [9] of 102%. The viability, T/C [10] was 102%, the viability, T/C [11] was 83.5% and the viability, T/C [12] was 62.2%. It also gave a viability, T/C [13] of 102%, a viability, T/C [14] of 105% and a viability, T/C [15] of 103%. It also gave a viability, T/C [16] of 98.2%, a viability, T/C [17] of 90.5% and a viability, T/C [18] of 48.2%. The viability, T/C [19] was 104%, the viability, T/C [20] was 105% and the viability, T/C [21] was 114%. The viability, T/C [22] was 102%, the viability, T/C [23] was 97.4% and the viability, T/C [24] was 54.6%. The viability, T/C [25] was 111%, the viability, T/C [26] was 112% and the viability, T/C [27] was 102%. For the same compound, the viability, T/C [28] was 99.9%, the viability, T/C [29] was 101% and the viability, T/C [30] was 59.7%. For the same compound, the viability, T/C [31] was 117%, the viability, T/C [32] was 113% and the viability, T/C [33] was 113%. For the same compound, the viability, T/C [34] was 112%, the viability, T/C [35] was 101% and the viability, T/C [36] was 57.2%.
